For one assay, the target named is aldose reductase (Homo sapiens, UniProt P15121). Kind of assay: aldose reductase inhibitory activity test in vitro. The class given is biochemical. An outline of the steps:
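Absorbance assay with 0.1 mM NADPH solution and enzyme preincubated with compound 10 min at room temperature, then 10 mM D,L-glyceraldehyde solution added as substrate. Incubation 30 min at 37 °C in PBS. Read-out is optical density at 340 nm, corrected with blank (no compound) and background (no substrate) wells.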

The subject of assay [1] is Wister rats fed with choline deficient diet. As to the kind of experiment: hepatic tissue section of non-alcohol fatty liver rats (HE). In kind it is in vivo. The conditions noted are these: FIG. 2, 10 and 20 mg/kg. As to the method:
Methods: male SPF level Wister rats are randomly divided into groups: (1) normal group (2) model control group (3) which is administered by compound S13 with the dose of 10 mg/kg (4) which is administered by compound S13 with the dose of 20 mg/kg (5) which is administered by compound S28 with the dose of 10 mg/kg […] which is administered by compound S28 with the dose of 20 mg/kg. Each group has 10 mice. The mice of normal group are fed with standard diet, the mice of other groups are fed with choline deficient diet (high-fat diet). Food intake and body weight are detected. Feeding with choline deficient diet are considered as a frequently-used hepatic adipose infiltration modeling method of rodent, which can induce the denaturation of hepatocyte, hepatitis and liver injury, at the same time the increase of blood lipid level can induce the insulin resistance.
After being fed with high-fat diet for 8 weeks, the mice of treated group are given drugs for 4 weeks successively. Model group and normal group are given with equal amounts of 0.5% CMC-Na. After administration of medicine for 4 weeks, the rats are executed under anesthesia, and then hepatic tissue and blood are collected.
4) Hepatic tissue section: after the last administration, the rats are executed under anesthesia. Collect the liver on the ice, then quickly fix the liver into formalin and prepare the tissue sections.

The test system of a further assay is normal mice. Kind of assay: blood sugar of normal mice. In kind it is in vivo, Kunming species mice. The following applies: 50 mg/kg intragastric, 10 days, fasted 10 hours. Here is the method:
Blood glucose determination kit (batch number 20140403) is purchased from Nanjing Jiancheng Bioengineering Institute.
Methods: after being acclimatized for 1 week, the 20±2 g Kunming species mice are randomly divided into 3 groups of 12 animals in each. 10 mg/ml extract solution of 0.1 ml (which corresponds to 50 mg/kg) is given to different groups of mice by intragastric administration for 10 days successively, and the control group is given with equal amounts of saline. After the last administration, the mice are fasted for 10 hours and blood is collected from orbit, then detect the blood sugar by blood glucose determination kit.

The target in assay [2] is T1, protein tyrosine phosphatase 1B (PTP-1B) (Homo sapiens, UniProt P18031).
T1 sequence (P18031 1-435): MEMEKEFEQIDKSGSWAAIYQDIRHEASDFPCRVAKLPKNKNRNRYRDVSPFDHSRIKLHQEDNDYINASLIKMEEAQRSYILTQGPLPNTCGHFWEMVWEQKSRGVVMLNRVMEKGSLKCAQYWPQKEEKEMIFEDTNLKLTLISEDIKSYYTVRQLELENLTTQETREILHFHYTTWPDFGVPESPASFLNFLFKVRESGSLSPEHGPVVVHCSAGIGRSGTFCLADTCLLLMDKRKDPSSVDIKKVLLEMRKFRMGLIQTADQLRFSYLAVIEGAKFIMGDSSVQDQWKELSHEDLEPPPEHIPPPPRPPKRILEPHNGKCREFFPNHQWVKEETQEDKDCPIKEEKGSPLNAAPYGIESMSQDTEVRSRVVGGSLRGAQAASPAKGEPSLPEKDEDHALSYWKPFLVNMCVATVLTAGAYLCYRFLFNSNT
As to the kind of experiment: PTP-1B inhibitory activity test in vitro. The class given is biochemical. An outline of the steps: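 Compound was preincubated 10 min at room temperature with 170 μg/mL PTP-1B solution, then 1 mM pNPP substrate was added and incubated 37 °C for 30 min. Reaction stopped with 3M NaOH; absorbance read at […], with blank and compound-background controls.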

The next assay concerns the target T2, HMG-CoA reductase (Homo sapiens, UniProt P04035).
T2 sequence (P04035 426-888 limits assumed): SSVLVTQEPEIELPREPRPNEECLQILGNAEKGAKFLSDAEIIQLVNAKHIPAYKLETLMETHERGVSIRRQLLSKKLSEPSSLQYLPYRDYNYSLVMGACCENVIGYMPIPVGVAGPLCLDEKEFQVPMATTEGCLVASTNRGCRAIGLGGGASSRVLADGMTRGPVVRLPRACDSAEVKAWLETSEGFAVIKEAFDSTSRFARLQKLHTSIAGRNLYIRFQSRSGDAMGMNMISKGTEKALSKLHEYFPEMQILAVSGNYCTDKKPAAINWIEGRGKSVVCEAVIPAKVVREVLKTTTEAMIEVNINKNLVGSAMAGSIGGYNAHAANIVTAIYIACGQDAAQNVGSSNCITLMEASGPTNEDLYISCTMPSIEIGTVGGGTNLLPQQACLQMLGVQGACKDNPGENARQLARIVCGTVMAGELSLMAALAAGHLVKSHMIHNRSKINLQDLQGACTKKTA
As to the kind of experiment: HMG-CoA reductase inhibitory activity test in vitro. In kind it is biochemical.

From patent publication US10441562B2, “Aromatic farnesyl compound and application thereof” (INSTITUTE OF MICROBIOLOGY, CHINESE ACADEMY OF SCIENCES, priority 2015, dated 2019) come the findings set out here.

By IC50 is commonly meant the midpoint of a concentration-inhibition curve. A high value points to weaker potency.

On to `CC(C)=CCC/C(C)=C/CCC1=C[C@H](c2cc(O)ccc2O)OC1=O` [S13, (R,E)-5-(2,5-dihydroxyphenyl)-3-(4,8-dimethylnona-3,7-dien-1-yl)furan-2(5H)-one], for which the 50% inhibitory concentration (IC50) is 1.8 µM at aldose reductase, 8.9 µM in assay [2] and 7.9 µM against HMG-CoA reductase. Also, in assay [1], the “fat vacuole in hepatocyte (liver tissue section, HE)” value was “almost disappear”. In addition, in the assay with normal mice, the blood sugar is on record as 4.21 mmol/L.

With `CC(C)=CCC/C(C)=C/CCC1=C[C@@H](c2cc(O)ccc2O)OC1=O` [S28, (S,E)-5-(2,5-dihydroxyphenyl)-3-(4,8-dimethylnona-3,7-dien-1-yl)furan-2(5H)-one], the half-inhibitory concentration (IC50) was 1.6 µM against aldose reductase, 9.5 µM in assay [2] and 8.9 µM against HMG-CoA reductase. Further, the “fat vacuole in hepatocyte (liver tissue section, HE)” value in assay [1] is on record as “almost disappear”. In the assay with normal mice, the blood sugar was 4.02 mmol/L.
